According to article PMC7890096, “Binding of non-canonical peptidoglycan controls Vibrio cholerae broad spectrum racemase activity” (Computational and Structural Biotechnology Journal, 2021):

System: BsrV
Assay: in vitro BsrV racemase assay (L-Ala substrate) with muropeptides, Marfey's/HPLC
Format: biochemical, Vibrio cholerae
Conditions: 4 mM L-Ala, 5 min at 37 °C, Bicarbonate buffer 50 mM pH 9, Fig. 3A; for inhibition of BsrV D-Ala production, in words: D-cycloserine 0.1 mM, tripeptide and D-Ala-D-Ala at equal concentration (amino acid, tripeptide/dipeptide), p dipeptide vs tripeptide = 0.0181, tripeptide vs M4 = 0.0027, M3R vs D-cycloserine < 0.0001
Experimental: For activity assays, in vitro LAA and DAAS were characterized with Marfey’s (FDAA)-derivatization in HPLC and DAAO assay (D-amino acid oxidase) performed as described. The product from a racemization reaction was derivatized with L-FDAA (1-fluoro-2-4-dinitrophenyl-5-L-alanine amide, Marfey’s reagent, Thermo Scientific). First, an equal volume of NaHCO3 0.5 M was added to the racemization reaction; then, 6 µL of this reaction was reacted with FDAA (10 mg/mL in acetone) at 80 °C for 3 min. The reaction was stopped with HCl 2 N and the samples were filtered. The products were separated with a linear gradient of triethylamine phosphate/acetonitrile in HPLC with an Aeris peptide column (250 × 4.6 mm; 3.6 μm particle size) (Phenomenex, USA) and detected at Abs.340 nm. To determine the inhibition effect of the sacculus in BsrV's activity, 35 µg of sacculi were incubated for 5 min at 37 °C with BsrV and 4 mM of L-Ala in Tris-HCl 50 mM pH 8. […] DAAO reaction was determined by coupling 10 µL of the extract into 150 µL of a reaction containing: sodium phosphate buffer 100 mM pH 7, Trigonopsis variabilis D-amino acid oxidase (DAAO) (Komarova et al., 2012) 3.6 U/ml, horseradish peroxidase 1 U/mL, o-phenylenediamine (OPD) 2 mg/mL and FAD 3 mg/ml. This two-step assay permits the quantification of H2O2 (DAAO is able to produce α-ketoacid, NH3 and H2O2 from DAA). Peroxidase reduces H2O2, […], leading to the production of 2,3–25 diaminophenazine. The reaction was incubated for 2 h at 37 °C and inactivated with HCl 3 M, giving a colorimetric product that can be measured at 492 nm. To determine the inhibition effect of muropeptides in BsrV's activity, 0.1 mM of M4 (GlcNAc-MurNAc-Ala-Glu-DAP (Diaminopimelate)-Ala), M3M (GlcNAc-MurNAc-Ala-Glu-DAP-Met), M3R (GlcNAc-MurNAc-Ala-Glu-DAP-Arg) and D-cycloserine were incubated with BsrV and 4 mM of L-Ala for 5 min at 37 °C (1/40 relation) in Bicarbonate buffer 50 mM pH 9. In the case of tripeptide and D-Ala-D-Ala, equal concentration (amino acid, tripeptide/dipeptide) was utilized.
Fig. 3 Peptidoglycan inhibits BsrV’s activity. (A) Inhibitory effect of muropeptides on BsrV activity. In vitro BsrV racemase assays with L-Ala as substrate in the presence of (see schematics): M4 (disaccharide tetrapeptide), M3M and M3R; the asterisk represents D-Met and D-Arg substitutions in the fourth position. […] P values: [dipeptide vs tripeptide] = 0.0181; [tripeptidevsM4] = 0.0027; [M4vsM3M] = 0.0003; [M4vsM3R] < 0.0003; [M3MvsM3R] = 0.2552; [M3RvsD-cycloserine] < 0.0001. (B) Inhibitory effect of peptidoglycan sacculi on BsrV activity. In vitro BsrV racemase assays with L-Ala as substrate in the presence of undigested sacculi (see schematics). Sugar rings are represented by hexagons and peptides are depicted. […]

Row | Molecule | inhibition of BsrV D-Ala production, in words | reduction in D-Ala production (% of inhibition) (0.1 mM muropeptide, Marfey's derivatization, HPLC 340 nm, vs control reaction with no inhibitor, single time point, p M4 vs M3M = 0.0003, M4 vs M3R < 0.0003, M3M vs M3R = 0.2552)
1 | N[C@@H]1CON=C1O [D-cycloserine] | inhibit the least | 
2 | CC(=O)N[C@H]1[C@H](O[C@H]2[C@H](O[C@H](C)C(=O)N[C@@H](C)C(=O)N[C@H](CCC(=O)N[C@@H](CCC[C@@H](N)C(=O)O)C(=O)N[C@H](C)C(=O)O)C(=O)O)[C@@H](NC(C)=O)C(O)O[C@@H]2CO)O[C@H](CO)[C@@H](O)[C@@H]1O (stereo partly drawn) [M4, GlcNAc-MurNAc-Ala-Glu-DAP-Ala] |  | ~ 20%
3 | L-Ala-D-Glu-D-Lys [tripeptide] | inhibit the least | 
4 | D-Ala-D-Ala [dipeptide] | inhibit the least | 
